Results as given in patent US20100298141A1, “SUBSTITUTED PYRIDINE N-OXIDE HERBICIDES” (E. I. DU PONT DE NEMOURS AND COMPANY, priority 2007, published 2010).

Columns and labels:
[1] = test system: barnyardgrass; assay: Test B flooded paddy test; type: in vivo, Echinochloa crus-galli; conditions: Flood, 250 g ai/ha, 13 to 15 days; scale 0 to 100, 0 no effect, 100 complete control
Text: (§1) At time of treatment, test pots were flooded to 3 cm above the soil surface, treated by application of test compounds directly to the paddy water, and then maintained at that water depth for the duration of the test. Treated plants and controls were maintained in a greenhouse for 13 to 15 days, after which time all species were compared to controls and visually evaluated. […] A dash (-) response means no test result.

[2] = test system: duck salad; assay: Test B flooded paddy test; type: in vivo, Heteranthera limosa; conditions: Flood, 250 g ai/ha, 13 to 15 days; scale 0 to 100, 0 no effect, 100 complete control
Text: as §1

[3] = test system: rice; assay: Test B flooded paddy test; type: in vivo, Oryza sativa; conditions: Flood, 250 g ai/ha, 13 to 15 days; scale 0 to 100, 0 no effect, 100 complete control
Text: as §1

[4] = test system: umbrella sedge; assay: Test B flooded paddy test; type: in vivo, Cyperus difformis; conditions: Flood, 250 g ai/ha, 13 to 15 days; scale 0 to 100, 0 no effect, 100 complete control
Text: as §1

[5] = test system: blackgrass; assay: Test D preemergence test; type: in vivo, Alopecurus myosuroides; conditions: scale 0 to 100
Text: (§2) Seeds of plant species selected from annual bluegrass (Poa annua), blackgrass (Alopecurus myosuroides), downy bromegrass (Bromus tectorum), field violet (Viola arvensis), green foxtail (Setaria viridis), Italian ryegrass (Lolium multiflorum), littleseed canarygrass (Phalaris minor), spring wheat (Triticum aestivum), wild oat (Avena fatua), […]), winter barley (Hordeum vulgare), and winter wheat (Triticum aestivum) were planted and treated preemergence with test chemicals formulated in a non-phytotoxic solvent mixture which included a surfactant. […] A dash (-) response means no test result.

[6] = test system: downy bromegrass; assay: Test D preemergence test; type: in vivo, Bromus tectorum; conditions: scale 0 to 100
Text: as §2

[7] = test system: field violet; assay: Test D preemergence test; type: in vivo, Viola arvensis; conditions: scale 0 to 100
Text: as §2

[8] = test system: green foxtail; assay: Test D preemergence test; type: in vivo, Setaria viridis; conditions: scale 0 to 100
Text: as §2

[9] = test system: littleseed canarygrass; assay: Test D preemergence test; type: in vivo, Phalaris minor; conditions: scale 0 to 100
Text: as §2

[10] = test system: spring wheat; assay: Test D preemergence test; type: in vivo, Triticum aestivum; conditions: scale 0 to 100
Text: as §2

[11] = test system: winter wheat; assay: Test D preemergence test; type: in vivo, Triticum aestivum; conditions: scale 0 to 100
Text: as §2

[12] = test system: windgrass; assay: Test D preemergence test; type: in vivo, Apera spica-venti; conditions: scale 0 to 100
Text: as §2

[13] = test system: winter barley; assay: Test D preemergence test; type: in vivo, Hordeum vulgare
Text: as §2

[14] = test system: broadleaf signalgrass; assay: Test G preemergence test; type: in vivo, Brachiaria platyphylla; conditions: scale 0 to 100
[15] = test system: eastern black nightshade; assay: Test G preemergence test; type: in vivo, Solanum ptycanthum; conditions: scale 0 to 100
[16] = test system: fall panicum; assay: Test G preemergence test; type: in vivo, Panicum dichotomiflorum; conditions: scale 0 to 100
[17] = test system: goosegrass; assay: Test G preemergence test; type: in vivo, Eleusine indica; conditions: scale 0 to 100
[18] = test system: itchgrass; assay: Test G preemergence test; type: in vivo, Rottboellia cochinchinensis; conditions: scale 0 to 100
[19] = test system: lambsquarters; assay: Test G preemergence test; type: in vivo, Chenopodium album; conditions: scale 0 to 100
[20] = test system: large crabgrass; assay: Test G preemergence test; type: in vivo, Digitaria sanguinalis; conditions: scale 0 to 100
[21] = test system: millet foxtail; assay: Test G preemergence test; type: in vivo, Setaria italica; conditions: scale 0 to 100
[22] = test system: sorghum; assay: Test G preemergence test; type: in vivo, Sorghum vulgare; conditions: scale 0 to 100
[23] = test system: tall waterhemp; assay: Test G preemergence test; type: in vivo, Amaranthus tuberculatos; conditions: scale 0 to 100
[24] = test system: yellow foxtail; assay: Test G preemergence test; type: in vivo, Pennisetum glaucum; conditions: scale 0 to 100
[25] = test system: yellow nutsedge; assay: Test G preemergence test; type: in vivo, Cyperus esculentus; conditions: scale 0 to 100
[26] = test system: woolly cupgrass; assay: Test G preemergence test; type: in vivo, Eriochloa villosa; conditions: scale 0 to 100

With Cn1nc(C(F)(F)F)c(CS(=O)(=O)c2cccc[n+]2[O-])c1OC(F)F [Compound 4] the “Plant response rating, Barnyardgrass” value [1] was 80, the “Plant response rating, Ducksalad” value [2] was 90 and the “Plant response rating, Rice, Transplanted” value [3] was 90. For the same compound, the “Plant response rating, Umbrella Sedge” value [4] was 100, the “Plant response rating, Blackgrass” value ([5]; 31 g ai/ha) was 0 and the “Plant response rating, Blackgrass” value ([5]; 62 g ai/ha) was 30. For the same compound, the “Plant response rating, Blackgrass” value ([5]; 125 g ai/ha) was 50, the “Plant response rating, Blackgrass” value ([5]; 250 g ai/ha) was 100 and the “Plant response rating, Bromegrass, Downy” value ([6]; 31 g ai/ha) was 30. For the same compound, the “Plant response rating, Bromegrass, Downy” value ([6]; 62 g ai/ha) was 30, the “Plant response rating, Bromegrass, Downy” value ([6]; 125 g ai/ha) was 30 and the “Plant response rating, Bromegrass, Downy” value ([6]; 250 g ai/ha) was 30. The “Plant response rating, Field Violet” value ([7]; 31 g ai/ha) was 0, the “Plant response rating, Field Violet” value ([7]; 62 g ai/ha) was 0 and the “Plant response rating, Field Violet” value ([7]; 125 g ai/ha) was 0. The “Plant response rating, Field Violet” value ([7]; 250 g ai/ha) was 10, the “Plant response rating, Foxtail, Green” value ([8]; 31 g ai/ha) was 40 and the “Plant response rating, Foxtail, Green” value ([8]; 62 g ai/ha) was 50. For the same compound, the “Plant response rating, Foxtail, Green” value ([8]; 125 g ai/ha) was 50, the “Plant response rating, Foxtail, Green” value ([8]; 250 g ai/ha) was 100 and the “Plant response rating, Canarygrass” value ([9]; 31 g ai/ha) was 30. For the same compound, the “Plant response rating, Canarygrass” value ([9]; 62 g ai/ha) was 100, the “Plant response rating, Canarygrass” value ([9]; 125 g ai/ha) was 100 and the “Plant response rating, Canarygrass” value ([9]; 250 g ai/ha) was 100. The “Plant response rating, Wheat, Spring” value ([10]; 31 g ai/ha) was 20, the “Plant response rating, Wheat, Spring” value ([10]; 62 g ai/ha) was 30 and the “Plant response rating, Wheat, Spring” value ([10]; 125 g ai/ha) was 30. For the same compound, the “Plant response rating, Wheat, Spring” value ([10]; 250 g ai/ha) was 30, the “Plant response rating, Wheat, Winter” value ([11]; 31 g ai/ha) was 30 and the “Plant response rating, Wheat, Winter” value ([11]; 62 g ai/ha) was 20. The “Plant response rating, Wheat, Winter” value ([11]; 125 g ai/ha) was 25, the “Plant response rating, Wheat, Winter” value ([11]; 250 g ai/ha) was 45 and the “Plant response rating, Windgrass” value ([12]; 31 g ai/ha) was 90. The “Plant response rating, Windgrass” value ([12]; 62 g ai/ha) was 100, the “Plant response rating, Windgrass” value ([12]; 125 g ai/ha) was 100 and the “Plant response rating, Windgrass” value ([12]; 250 g ai/ha) was 100. The “Plant response rating, Barley” value ([13]; Preemergence, 62 g ai/ha, scale 0 to 100) was 30, the “Plant response rating, Barley” value ([13]; Preemergence, 125 g ai/ha, scale 0 to 100) was 30 and the “Plant response rating, Barley” value ([13]; Preemergence, 31 g ai/ha, scale 0 to 100) was 30. For the same compound, the “Plant response rating, Barley” value ([13]; preemergence, 250 g ai/ha, scale 0 (no effect) to 100 (complete control)) was 35, the “Plant response rating, Signalgrass” value ([14]; 31 g ai/ha) was 0 and the “Plant response rating, Signalgrass” value ([14]; 62 g ai/ha) was 20. The “Plant response rating, Signalgrass” value ([14]; 125 g ai/ha) was 80, the “Plant response rating, Signalgrass” value ([14]; 250 g ai/ha) was 90 and the “Plant response rating, Nightshade” value ([15]; 31 g ai/ha) was 20. The “Plant response rating, Nightshade” value ([15]; 62 g ai/ha) was 30, the “Plant response rating, Nightshade” value ([15]; 125 g ai/ha) was 90 and the “Plant response rating, Nightshade” value ([15]; 250 g ai/ha) was 100. The “Plant response rating, Fall Panicum” value ([16]; 31 g ai/ha) was 20, the “Plant response rating, Fall Panicum” value ([16]; 62 g ai/ha) was 20 and the “Plant response rating, Fall Panicum” value ([16]; 125 g ai/ha) was 60. The “Plant response rating, Fall Panicum” value ([16]; 250 g ai/ha) was 100, the “Plant response rating, Goosegrass” value ([17]; 31 g ai/ha) was 80 and the “Plant response rating, Goosegrass” value ([17]; 62 g ai/ha) was 95. The “Plant response rating, Goosegrass” value ([17]; 125 g ai/ha) was 100, the “Plant response rating, Goosegrass” value ([17]; 250 g ai/ha) was 100 and the “Plant response rating, Itchgrass” value ([18]; 31 g ai/ha) was 0. The “Plant response rating, Itchgrass” value ([18]; 62 g ai/ha) was 20, the “Plant response rating, Itchgrass” value ([18]; 125 g ai/ha) was 30 and the “Plant response rating, Itchgrass” value ([18]; 250 g ai/ha) was 60. The “Plant response rating, Lambsquarters” value ([19]; 31 g ai/ha) was 0, the “Plant response rating, Lambsquarters” value ([19]; 62 g ai/ha) was 10 and the “Plant response rating, Lambsquarters” value ([19]; 125 g ai/ha) was 10. For the same compound, the “Plant response rating, Lambsquarters” value ([19]; 250 g ai/ha) was 10, the “Plant response rating, Crabgrass, Large” value ([20]; 31 g ai/ha) was 85 and the “Plant response rating, Crabgrass, Large” value ([20]; 62 g ai/ha) was 80. For the same compound, the “Plant response rating, Crabgrass, Large” value ([20]; 125 g ai/ha) was 95, the “Plant response rating, Crabgrass, Large” value ([20]; 250 g ai/ha) was 100 and the “Plant response rating, Foxtail, Millet” value ([21]; 31 g ai/ha) was 30. For the same compound, the “Plant response rating, Foxtail, Millet” value ([21]; 62 g ai/ha) was 40, the “Plant response rating, Foxtail, Millet” value ([21]; 125 g ai/ha) was 70 and the “Plant response rating, Foxtail, Millet” value ([21]; 250 g ai/ha) was 100. For the same compound, the “Plant response rating, Sorghum” value ([22]; 31 g ai/ha) was 10, the “Plant response rating, Sorghum” value ([22]; 62 g ai/ha) was 25 and the “Plant response rating, Sorghum” value ([22]; 125 g ai/ha) was 35. The “Plant response rating, Sorghum” value ([22]; 250 g ai/ha) was 40, the “Plant response rating, Waterhemp” value ([23]; 31 g ai/ha) was 80 and the “Plant response rating, Waterhemp” value ([23]; 62 g ai/ha) was 100. The “Plant response rating, Waterhemp” value ([23]; 125 g ai/ha) was 100, the “Plant response rating, Waterhemp” value ([23]; 250 g ai/ha) was 100 and the “Plant response rating, Foxtail, Yellow” value ([24]; 31 g ai/ha) was 100. For the same compound, the “Plant response rating, Foxtail, Yellow” value ([24]; 62 g ai/ha) was 100, the “Plant response rating, Foxtail, Yellow” value ([24]; 125 g ai/ha) was 100 and the “Plant response rating, Foxtail, Yellow” value ([24]; 250 g ai/ha) was 100. For the same compound, the “Plant response rating, Nutsedge, Yellow” value ([25]; 31 g ai/ha) was 0, the “Plant response rating, Nutsedge, Yellow” value ([25]; 62 g ai/ha) was 0 and the “Plant response rating, Nutsedge, Yellow” value ([25]; 125 g ai/ha) was 15. For the same compound, the “Plant response rating, Nutsedge, Yellow” value ([25]; 250 g ai/ha) was 40, the “Plant response rating, Cupgrass, Woolly” value ([26]; 31 g ai/ha) was 0 and the “Plant response rating, Cupgrass, Woolly” value ([26]; 62 g ai/ha) was 75. For the same compound, the “Plant response rating, Cupgrass, Woolly” value ([26]; 125 g ai/ha) was 75 and the “Plant response rating, Cupgrass, Woolly” value ([26]; 250 g ai/ha) was 100.

Cn1nc(C(F)(F)F)c(C[S+]([O-])c2ccc(Cl)c[n+]2[O-])c1OC(F)F (stereo not drawn) [Compound 6] was tested, and the “Plant response rating, Barnyardgrass” value [1] was 80, the “Plant response rating, Ducksalad” value [2] was 100 and the “Plant response rating, Rice, Transplanted” value [3] was 60. The “Plant response rating, Umbrella Sedge” value [4] was 100.
